Among the data in US20240051968A1, “METHODS FOR TREATING SPINOCEREBELLAR ATAXIA TYPE 3” (PTC Therapeutics, Inc., priority 2021, published 2024) are IC50 values, retold here.

Bounds are passed on as bounds.

What is called IC50 is the point on the concentration scale where inhibition reaches its midpoint.

Experiment [1] has as its system Total ATXN3 (tATXN3) protein. Briefly: Endogenous Total ATXN3 (tATXN3) Protein Assay (MSD immunoassay of cell lysates). Format: cell-based. The note with it: cells incubated with compound 48 h; 7-point concentration curve; MSD detection in cell lysate. As to the method:
Endogenous Total ATXN3 (tATXN3) Protein Assay
Meso Scale Discovery (MSD) 96-well or 384-well plates were coated overnight at 4° C. with Ataxin 3 mouse monoclonal antibody (Invitrogen, MA3-082) at a concentration of 0.5 μg/mL in PBS (30 μL per well). Plates were then washed three times with 300 μL wash buffer (0.05% TWEEN®-20, polyethylene glycol sorbitan monolaurate, in PBS) and blocked (Meso Scale Diagnostics, R93BA-1; 5% BSA in PBS) for 2 h at room temperature with rotational shaking and then washed three times with wash buffer.
Test compounds were serially diluted 3.16-fold in 100% DMSO to generate a 7-point concentration curve. Aliquots of 0.5 μL of diluted compounds were transferred to a 96-well flat bottom plate by a liquid handler. An aliquot of 0.5 μL DMSO was also transferred to separate wells and used as controls. Duplicate samples were set up for each compound concentration and for the DMSO control.
Cells were thawed and incubated in cell culture media (DMEM, 10% FBS, and 1% antibiotic cocktail) for 72 h. Cells were trypsinized, counted, and re-suspended to a concentration of 100,000 cells/mL in cell culture media. A 100 μL aliquot of the cell suspensions were plated at 10,000 cells per well in the compound containing 96 well microtiter plate and incubated for in a cell culture incubator (37° C., 5% CO2, 100% relative humidity). After 48 h, the medium was removed and 50-100 μL of lysis buffer (Meso Scale Diagnostics, R60TX-2) containing 1× halt protease inhibitor cocktail of (Thermo Scientific, Halt™ Protease Inhibitor Cocktail, 78430) per well was added to cells to provide a “cell lysate”. The plate was placed on a shaker at 4° C. for 30 minutes, then stored at −80° C.
Cell lysate samples (25 μL) were transferred to the antibody-coated MSD plate and incubated overnight at 4° C. After removal of the lysates, the plate was washed three times with wash buffer, and 25 μL of Ataxin 3 recombinant rabbit monoclonal antibody (Invitrogen, #702788) secondary antibody (diluted to 0.25 μg/mL in 0.05% TWEEN®-20 in blocking buffer) was added to each well and incubated with shaking for 1-2 h at room temperature. Following incubation with the secondary antibody, the wells were rinsed with wash buffer and then […] Anti Rabbit Antibody Goat SULFO-TAG Labeled (Meso Scale Diagnostics, R32AB-1) detecting antibody (diluted to 0.25 μg/mL in 0.05% TWEEN®-20 in blocking buffer) was added to each well and incubated with shaking for 1 h at room temperature. After rinsing three times with wash buffer, 150 μL of Read Buffer T with surfactant (tris-based buffer containing tripropylamine, Meso Scale Diagnostics, R92TC-1) were added to each empty well, and the plate was imaged on a SI 6000 imager (MSD) according to manufacturers' instructions provided for 96- or 384-well plates.

In a further experiment the test system is ATXN3 pre-mRNA. Briefly: RT-qPCR Assay to Quantify Exon 4 Skipping in ATXN3 pre-mRNA in Cells. The format is cell-based. The note with it: cells incubated with compound 24 h, 7-point concentration curve, GAPDH control. The procedure:
RT-qPCR Assay to Quantify Exon 4 Skipping in ATXN3 pre-mRNA in Cells Test compounds were serially diluted 3.16-fold in 100% DMSO to generate a 7-point concentration curve. Aliquots of 0.5 μL of diluted compounds were transferred to a 96-well flat bottom plate by a liquid handler. An aliquot of 0.5 μL DMSO was also transferred to separate wells and used as controls. Duplicate samples were set up for each compound concentration and for the DMSO control.
Cells were thawed and incubated in cell culture media (DMEM, 10% FBS, and 1% antibiotic cocktail) for 72 h. Cells were trypsinized, counted, and re-suspended to a concentration of 100,000 cells/mL in cell culture media. A 100 μL aliquot of the cell suspensions were plated at 10,000 cells per well in the compound containing 96 well microtiter plate and incubated for in a cell culture incubator (37° C., 5% CO2, 100% relative humidity).
After 24 h, media was aspirated from the cells and 50 μL of the RCL2 lysis buffer (10 mM Tris-HCL pH 7.4, 150 mM NaCl, 0.33% IGEPAL® CA-630) was added to each well and incubated at room temperature for 1 min. Chilled nuclease free water (50 μL per well) was added and the plates were immediately transferred on ice. After 1 min on ice, plates were frozen at −80° C. overnight.
Preparation of RT-qPCR Reaction Mixture:
An aliquot of 2 μL/well of the cell lysates was transferred using the liquid handler to the Armadillo 384-Well PCR plate containing 8 μL/well of the RT-qPCR reaction mixture that was prepared as detailed above. The plates were then sealed with MicroAmp™ Optical Adhesive Film followed by spinning down for 1 min and placed in the CFX384 thermocycler (BioRad).
The RT-qPCR was carried out at the following temperatures for the indicated time: • Step 1: 48° C. (30 min) • Step 2: 95° C. (10 min) • Step 3: 95° C. (15 sec) • Step 4: 60° C. (1 min); then, repeated Steps 3 and 4 for a total of 40 cycles.
The percent exon 4 skipping was calculated for each dose of compound treatment using Equations 1 and 2.
Data were fit to a dose response curve and the IC50 was interpolated using XLfit® statistical and curve fitting package.
An IC50 value between >2.0 μM and ≤3.0 μM is indicated by one star (*). […] IC50 value between >0.5 μM and ≤1.0 μM is indicated by four stars (****). An IC50 value ≤0.5 μM is indicated by five stars (*****).
(Quantitative PCR measures a nucleic acid by following its amplification.)

Take `C[C@H](N)Cc1sc2c(NCc3ccco3)cc(Cl)nc2c1C#N` [Cpd 109, 2-[(2S)-2-aminopropyl]-5-chloro-7-{[(furan-2-yl)methyl]amino}thieno[3,2-b]pyridine-3-carbonitrile]: the concentration for half-maximal inhibition (IC50) (in experiment [1]; with ATXN3 pre-mRNA) was not above 500 nM in each case.

With `CS(=O)(=O)C[C@H](N)Cc1sc2c(NCc3ccco3)cc(Cl)nc2c1Cl` [Cpd 113, 2-[(2R)-2-amino-3-(methanesulfonyl)propyl]-3,5-dichloro-N-[(furan-2-yl)methyl]thieno[3,2-b]pyridin-7-amine], the half-maximal inhibitory concentration (IC50) (in experiment [1]; in the experiment on ATXN3 pre-mRNA) was not above 500 nM in each case.

As to `CSC[C@H](N)Cc1sc2c(NCc3ccco3)cc(Cl)nc2c1Cl` [Cpd 114, 2-[(2R)-2-amino-3-(methylsulfanyl)propyl]-3,5-dichloro-N-[(furan-2-yl)methyl]thieno[3,2-b]pyridin-7-amine], the half-maximal inhibitory concentration (IC50) (in experiment [1]; in the experiment with ATXN3 pre-mRNA) was not above 500 nM each time.

Turning to `Cc1c(C[C@@H](N)C(=O)O)sc2c(NCc3ccco3)cc(Cl)nc12` [Cpd 115, 3-(5-chloro-7-{[(furan-2-yl)methyl]amino}-3-methylthieno[3,2-b]pyridin-2-yl)-D-alanine], the IC50 (in experiment [1]; with ATXN3 pre-mRNA) was not above 500 nM throughout.

With `Cc1c(C[C@@H](N)C(=O)N(C)C)sc2c(NCc3ccco3)cc(Cl)nc12` [Cpd 116, 3-(5-chloro-7-{[(furan-2-yl)methyl]amino}-3-methylthieno[3,2-b]pyridin-2-yl)-N,N-dimethyl-D-alaninamide], the 50% inhibitory concentration (IC50) (in experiment [1]; in the experiment on ATXN3 pre-mRNA) was not above 500 nM in each case.

`CS(=O)(=O)C[C@H](N)Cc1sc2c(NCc3ccco3)cc(Cl)nc2c1Br` [Cpd 117, 2-[(2R)-2-amino-3-(methanesulfonyl)propyl]-3-bromo-5-chloro-N-[(furan-2-yl)methyl]thieno[3,2-b]pyridin-7-amine]: the half-inhibitory concentration (IC50) (in experiment [1]; in the experiment with ATXN3 pre-mRNA) was not above 500 nM each time.

Take `CSC[C@H](N)Cc1sc2c(NCc3ccco3)cc(Cl)nc2c1Br` [Cpd 118, 2-[(2R)-2-amino-3-(methylsulfanyl)propyl]-3-bromo-5-chloro-N-[(furan-2-yl)methyl]thieno[3,2-b]pyridin-7-amine]: the half-inhibitory concentration (IC50) (in experiment [1]; with ATXN3 pre-mRNA) was not above 500 nM throughout.

For the compound `N[C@H](Cc1sc2c(NCc3ccco3)cc(Cl)nc2c1Cl)C(=O)Nc1ccccc1F` [Cpd 120, 3-(3,5-dichloro-7-{[(furan-2-yl)methyl]amino}thieno[3,2-b]pyridin-2-yl)-N-(2-fluorophenyl)-D-alaninamide], the IC50 in experiment [1] was 500 to 1000 nM; in the experiment with ATXN3 pre-mRNA it was not above 500 nM.

Take `N[C@H](Cc1sc2c(NCc3ccco3)cc(Cl)nc2c1Cl)C(=O)O` [Cpd 121, 3-(3,5-dichloro-7-{[(furan-2-yl)methyl]amino}thieno[3,2-b]pyridin-2-yl)-D-alanine]: the IC50 is 500 to 1000 nM in experiment [1] and not above 500 nM with ATXN3 pre-mRNA.

Turning to `N[C@H](Cc1sc2c(NCc3ccco3)cc(Cl)nc2c1Cl)C(=O)Nc1ccccc1` [Cpd 122, 3-(3,5-dichloro-7-{[(furan-2-yl)methyl]amino}thieno[3,2-b]pyridin-2-yl)-N-phenyl-D-alaninamide], the IC50 (in experiment [1]; with ATXN3 pre-mRNA) was not above 500 nM in each case.

As for `C#C[C@H](N)Cc1sc2c(NCc3ccco3)cc(Cl)nc2c1C` [Cpd 123, 2-[(2R)-2-aminobut-3-yn-1-yl]-3-methyl-5-chloro-N-[(furan-2-yl)methyl]thieno[3,2-b]pyridin-7-amine], the IC50 (in experiment [1]; with ATXN3 pre-mRNA) was not above 500 nM in each case.

Take `C[C@H](F)[C@H](N)Cc1sc2c(NCc3nccs3)cc(Cl)nc2c1Br` [Cpd 125, 2-[(2R,3S)-2-amino-3-fluorobutyl]-3-bromo-5-chloro-N-[(1,3-thiazol-2-yl)methyl]thieno[3,2-b]pyridin-7-amine]: the IC50 (in experiment [1]; in the experiment with ATXN3 pre-mRNA) was not above 500 nM in each case.

Regarding `Cc1c(C[C@@H](N)[C@H](C)F)sc2c(NCc3cccs3)cc(Cl)nc12` [Cpd 126, 2-[(2R,3S)-2-amino-3-fluorobutyl]-5-chloro-3-methyl-N-[(thiophen-2-yl)methyl]thieno[3,2-b]pyridin-7-amine], the half-inhibitory concentration (IC50) (in experiment [1]; in the experiment on ATXN3 pre-mRNA) was not above 500 nM throughout.

With `C[C@H](N)C(O)c1sc2c(NCc3cccs3)cc(Cl)nc2c1Cl` (stereo partly drawn) [Cpd 127, (2S)-2-amino-1-(3,5-dichloro-7-{[(thiophen-2-yl)methyl]amino}thieno[3,2-b]pyridin-2-yl)propan-1-ol], the 50% inhibitory concentration (IC50) (in experiment [1]; in the experiment on ATXN3 pre-mRNA) was not above 500 nM throughout.

In the case of `Cc1c(C[C@@H](N)[C@H](C)F)sc2c(NCc3nccs3)cc(Cl)nc12` [Cpd 128, 2-[(2R,3S)-2-amino-3-fluorobutyl]-5-chloro-3-methyl-N-[(1,3-thiazol-2-yl)methyl]thieno[3,2-b]pyridin-7-amine], the IC50 (in experiment [1]; in the experiment on ATXN3 pre-mRNA) was not above 500 nM throughout.

Take `C[C@H](N)C(F)c1sc2c(NCc3cccs3)cc(Cl)nc2c1Cl` (stereo partly drawn) [Cpd 130, 2-[(2S)-2-amino-1-fluoropropyl]-3,5-dichloro-N-[(thiophen-2-yl)methyl]thieno[3,2-b]pyridin-7-amine]: the half-maximal inhibitory concentration (IC50) (in experiment [1]; in the experiment with ATXN3 pre-mRNA) was not above 500 nM each time.

As to `C[C@H](N)C(F)(F)c1sc2c(NCc3cccs3)cc(Cl)nc2c1Cl` [Cpd 132, 2-[(2S)-2-amino-1,1-difluoropropyl]-3,5-dichloro-N-[(thiophen-2-yl)methyl]thieno[3,2-b]pyridin-7-amine], the half-maximal inhibitory concentration (IC50) in experiment [1] was 500 to 1000 nM; in the experiment with ATXN3 pre-mRNA, not above 500 nM.

For the compound `Cc1c(C[C@@H](N)C(=O)Nc2cnccn2)sc2c(NCc3ccco3)cc(Cl)nc12` [Cpd 135, 3-(5-chloro-7-{[(furan-2-yl)methyl]amino}-3-methylthieno[3,2-b]pyridin-2-yl)-N-pyrazin-2-yl-D-alaninamide], the 50% inhibitory concentration (IC50) (in experiment [1]; with ATXN3 pre-mRNA) was not above 500 nM in each case.

For the compound `Cc1c(C[C@@H](N)C(=O)Nc2ccncc2)sc2c(NCc3ccco3)cc(Cl)nc12` [Cpd 140, 3-(5-chloro-7-{[(furan-2-yl)methyl]amino}-3-methylthieno[3,2-b]pyridin-2-yl)-N-pyridin-4-yl-D-alaninamide], the IC50 (in experiment [1]; in the experiment with ATXN3 pre-mRNA) was not above 500 nM throughout.

Regarding `Cc1c(C[C@@H](N)C(=O)N(C)c2ccccc2)sc2c(NCc3ccco3)cc(Cl)nc12` [Cpd 141, 3-(5-chloro-7-{[(furan-2-yl)methyl]amino}-3-methylthieno[3,2-b]pyridin-2-yl)-N-methyl-N-phenyl-D-alaninamide], the IC50 (in experiment [1]; in the experiment on ATXN3 pre-mRNA) was 1000 to 1500 nM each time.
